From US9353089B2, “Compositions and methods for the treatment of malaria” (Saint Louis University, priority 2013, dated 2016)

What was measured:
[1] = Rat pharmacokinetic (PK) analysis; type: in vivo; conditions: for half-life: male, SD, plasma, read-out: Rat PK t1/2 (converted)
Procedure: Male SD rats, weighing 180-220 g (Southern China Medical University, China) were utilized for the studies. Animals were maintained on standard animal chow and water ad libitum, in a climate controlled room (23±1° C.), 30-70% relative humidity, a minimum of 10 exchanges of room air per hour and a 12-h light/dark cycle) for one week prior to experiments. The test compound was dissolved in suitable solvent. Pharmacokinetic properties were determined following i.v. and oral administration. Animals were randomly distributed into two experimental groups (n=4). The oral groups were given 5 mg/kg of the test compound by gastric gavage. The other group was dosed by injection into the tail vein (1 mg/kg). […]; 2, 10, 30 min and 1, 2, 3, 4, 6, 8, 11 and 24 h (i.v.). Whole blood samples were collected in heparinized tubes. The plasma fraction was immediately separated by centrifugation (8,000 rpm, 6 min, 4° C.) and stored at −20° C. until LC-MS analysis. The rats were humanely euthanasia by carbon dioxide 24 hours after experiment without pain.
Plasma Sample Analysis. Standard Curve Sample Preparation:
The compound was dissolved in DMSO at a concentration of 2 mg/mL and diluted with 50% methanol solution to series concentration as follow: 20, 50, 100, 500, 1000, 2000, 4000, 6000, 12000, 40000 ng/mL. 10 μL series concentration solution and 50 μL blank plasma were added to 1.5 mL tube and vortex for 3 min, then 150 μL acetonitrile containing internal standard were added and vortex for 5 min, finally spin tube in centrifuge at 16000 g for 40 min at 4° C. Plasma sample preparation: The plasma samples were prepared using protein precipitation method. […] LC/MS/MS analysis: After centrifuge, 100 μL supernatant was transfer to the 96 well plate and analyzed by LC-MS/MS using an Applied Biosystems-Sciex model API 3000 mass spectrometer. The pharmacokinetics parameters were calculated by analyzing the compound concentration in plasma samples using the pharmacokinetic software DAS.2.0.

[2] = HLM metabolic stability assay; type: in vitro ADME; conditions: pH 7.4, human liver microsomes, read-out: HLM t1/2
Procedure: (§1) In this protocol, the metabolic stability of compounds at 1 μM was determined in Mouse Liver Microsome (MLM), rat liver microsomes (RLM) or human liver microsomes (HLM). […]. After incubation at 37° C. for a specific time period (0, 5, 10, 20 and 30 min), the reaction was terminated by the addition of 200 μL ice cold acetonitrile containing internal standard (100 ng/mL) after 100 μL aliquots of reaction mixture was removed. The quenched reaction mixtures were centrifuged at 3200 rpm for 5 min, and 100 μL of the supernatant were transferred to 96-well deep plate. The samples in 96 well plate were analyzed by LC-MS/MS using an Applied Biosystems-Sciex model API 3000 mass spectrometer. The data were analyzed using the following equations. […]

[3] = MLM metabolic stability assay; type: in vitro ADME; conditions: pH 7.4, mouse liver microsomes, read-out: MLM t1/2
Procedure: as §1

| Structure (SMILES) | Rat PK oral bioavailability (% F) ([1]; 5 mg/kg oral, 1 mg/kg i.v.) | half-life [1] [min] | half-life at 1 μM [2] [min] | half-life at 1 μM [3] [min] |
| --- | --- | --- | --- | --- |
| COc1ccc(C2(c3ccc(OC)cc3)NC(=N)N(C3CCOCC3)C2=O)cc1 [Example 176, 2-imino-5,5-bis(4-methoxyphenyl)-3-(oxan-4-yl)-imidazolidin-4-one] | 21 | 66 | 36 |  |
| COc1ccc(C2(c3ccc(OC)cc3)NC(=N)N(C3CCN(C(=O)OC(C)(C)C)CC3)C2=O)cc1 [Example 206, tert-butyl 4-[2-imino-4,4-bis(4-methoxyphenyl)-5-oxoimidazolidin-1-yl]piperidine-1-carboxylate] |  | 72 |  | 26 |
